In patent US20100169994A1, “ANIMAL MODEL” (priority 2007, published 2010) one finds locomotor activity data, which are given here for one molecule.

The subject of the assay is NK1−/− and wild-type mice. Conditions: wild-type versus NK1−/− mice; FIG. 13. On the procedure:
The effect of betaxolol and desipramine was tested using similar protocols to those used for testing the effect of d-amphetamine.

Molecules are shown by their SMILES.

As for `CC(C)NCC(O)COc1ccc(CCOCC2CC2)cc1` (stereo not shown) [betaxolol], the locomotor activity entry is given as “not all drugs that increase locomotor activity in wild-type mice reduce it in NK1^−/− mice”.
